Assay [1] can be described thus: Inhibition of Streptococcus pneumoniae 159 MurM.
Assay [2] has as its system Streptococcus pneumoniae. Nature of the assay: Antibacterial activity against penicillin-resistant Streptococcus pneumoniae 159 at 1 mM. It counts as functional, organism-based.
Assay [3] relates to Streptococcus pneumoniae. Put plainly: Inhibition of Streptococcus pneumoniae 159 MurM at 1 mM.

Consider three compounds from ChEMBL document CHEMBL1140022, “Adenosine phosphonate inhibitors of lipid II: alanyl tRNA ligase MurM from Streptococcus pneumoniae” (Bioorg Med Chem Lett, 2007).

The source made the active and inactive calls. No cut-off for these calls is given here.

A word on the IC50: it is the point on the concentration scale where inhibition reaches its midpoint. A lower IC50 goes with higher potency.

Compound `CC(N)P(=O)(O)O[C@@H]1[C@H](O)[C@@H](CO)O[C@H]1n1cnc2c(N)ncnc21` (some centres undefined) yielded an IC50 in assay [1] of 780 µM. As to `CC(N)P(=O)(O)O[C@H]1C[C@H](n2cnc3c(N)ncnc32)O[C@@H]1CO` (some centres undefined), half-maximal inhibition in assay [1] (IC50) required 100 µM. In addition, in the assay with Streptococcus pneumoniae [2], the outcome was inactive. `COc1ccc(CC(N)C(=O)N[C@H]2[C@@H](O)[C@H](n3cnc4c(N(C)C)ncnc43)O[C@@H]2CO)cc1` (single isomer, unassigned): in the assay with Streptococcus pneumoniae [3], the outcome was inactive.
